The results in this text go back to patent US11773094B2, “Farnesoid X receptor agonists and uses thereof” (Metacrine, Inc., priority 2018, dated 2023).

pEC50: −log10 of the molar value.

The target of this test is T1, hFXR (Homo sapiens, UniProt Q96RI1).
T1 construct: expressed in transfected cells; host or cells: CV-1 cells
T1 sequence (Q96RI1 1-486): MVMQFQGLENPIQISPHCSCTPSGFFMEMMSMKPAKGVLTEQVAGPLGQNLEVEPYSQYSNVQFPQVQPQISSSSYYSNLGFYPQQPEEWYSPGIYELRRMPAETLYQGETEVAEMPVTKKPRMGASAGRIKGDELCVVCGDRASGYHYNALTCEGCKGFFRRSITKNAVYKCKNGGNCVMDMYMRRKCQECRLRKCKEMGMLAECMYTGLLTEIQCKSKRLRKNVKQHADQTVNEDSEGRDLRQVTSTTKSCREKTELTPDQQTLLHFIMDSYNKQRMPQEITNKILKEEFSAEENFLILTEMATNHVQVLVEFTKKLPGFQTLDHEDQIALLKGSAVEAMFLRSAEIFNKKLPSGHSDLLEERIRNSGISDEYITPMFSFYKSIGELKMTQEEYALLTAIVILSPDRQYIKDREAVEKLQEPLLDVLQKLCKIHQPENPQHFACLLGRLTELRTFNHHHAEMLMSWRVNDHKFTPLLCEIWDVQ
T1 sequence (P19793 1-462 partner): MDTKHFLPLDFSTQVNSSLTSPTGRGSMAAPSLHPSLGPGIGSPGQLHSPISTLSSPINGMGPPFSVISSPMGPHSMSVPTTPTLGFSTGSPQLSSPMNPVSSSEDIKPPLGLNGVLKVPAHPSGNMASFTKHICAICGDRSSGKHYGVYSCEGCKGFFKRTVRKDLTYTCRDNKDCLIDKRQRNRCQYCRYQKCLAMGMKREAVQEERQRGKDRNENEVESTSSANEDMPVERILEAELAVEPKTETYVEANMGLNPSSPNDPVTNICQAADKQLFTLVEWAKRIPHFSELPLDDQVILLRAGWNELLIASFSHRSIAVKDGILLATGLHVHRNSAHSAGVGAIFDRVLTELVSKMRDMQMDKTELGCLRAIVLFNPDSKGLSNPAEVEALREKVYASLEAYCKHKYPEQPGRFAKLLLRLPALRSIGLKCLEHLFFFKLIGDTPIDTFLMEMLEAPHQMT
The test is described as follows: In Vitro FXR Assay (TK): TK-ECRE-luc reporter in transfected CV-1 cells. It counts as cell-based. As to conditions: CV-1 cells transfected with hFXR, hRXR, pCMX-YFP, 18 hrs incubation, luminescence. In outline:
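Luminescence from a TK-ECRE-luc reporter was read after 18 h of compound exposure in CV-1 cells. These cells were grown in charcoal-stripped FBS medium and transiently transfected with hFXR, hRXR and YFP expression plasmids.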
Molecule `COc1ccc(C23CCC(CN(c4cc(-c5cnc(C(C)(C)C)s5)ccn4)C(=O)[C@H]4CC[C@H](OC(=O)N5CC(O)C5)CC4)(CC2)CC3)cc1C` [Compound 3.07, 4-((4-(2-(tert-Butyl)thiazol-5-yl)pyridin-2-yl)((4-(4-methoxy-3-methylphenyl)bicyclo[2.2.2]octan-1-yl)methyl)carbamoyl) cyclohexyl trans-3-hydroxyazetidine-1-carboxylate] gave a pEC50 of at least 8.00. In the case of `COc1ccc(C23CCC(CN(c4cc(-c5coc(C(C)(C)C)n5)ccn4)C(=O)[C@H]4CC[C@H](OC(=O)NCCO)CC4)(CC2)CC3)cc1C` [Compound 2.19, 4-((4-(2-(tert-Butyl)oxazol-4-yl)pyridin-2-yl)((4-(4-methoxy-3-methylphenyl)bicyclo[2.2.2]octan-1-yl)methyl)carbamoyl)cyclohexyl (2-hydroxyethyl)trans-carbamate] it was at least 8.00.

Take `COc1ccc(C23CCC(CN(c4cc(-c5coc(C(C)(C)C)n5)ccn4)C(=O)[C@H]4CC[C@H](OC(=O)N5CC(C)(O)C5)CC4)(CC2)CC3)cc1C` [Compound 2.12, 4-((4-(2-(tert-Butyl)oxazol-4-yl)pyridin-2-yl)((4-(4-methoxy-3-methylphenyl)bicyclo[2.2.2]octan-1-yl)methyl)carbamoyl) (trans-cyclohexyl) 3-hydroxy-3-methylazetidine-1-carboxylate]: the pEC50 was at least 8.00. In the case of `COc1ccc(C23CCC(CN(c4cc(-c5coc(C(C)(C)C)n5)ccn4)C(=O)[C@H]4CC[C@H](OC(=O)NC5COC5)CC4)(CC2)CC3)cc1C` [Compound 2.18, 4-((4-(2-(tert-Butyl)oxazol-4-yl)pyridin-2-yl)((4-(4-methoxy-3-methylphenyl)bicyclo[2.2.2]octan-1-yl)methyl)carbamoyl) (trans-cyclohexyl) oxetan-3-ylcarbamate] it was 6.00 to 8.00; in that of `COc1ccc(C23CCC(CN(c4cc(-c5coc(C(C)(C)C)n5)ccn4)C(=O)[C@H]4CC[C@H](OC(=O)N5CC(OCCO)C5)CC4)(CC2)CC3)cc1C` [Compound 2.14, 4-((4-(2-(tert-Butyl)oxazol-4-yl)pyridin-2-yl)((4-(4-methoxy-3-methylphenyl)bicyclo[2.2.2]octan-1-yl)methyl)carbamoyl) (trans-cyclohexyl) 3-(2-hydroxyethoxy)azetidine-1-carboxylate], at least 8.00; in that of `COc1ccc(C23CCC(CN(c4cccc(-c5cnn(C(C)(C)C)c5)n4)C(=O)[C@H]4CC[C@H](OC(=O)N5CC(O)C5)CC4)(CC2)CC3)cc1C` [Compound 1.15, 4-((6-(1-(tert-Butyl)-1H-pyrazol-4-yl)pyridin-2-yl)((4-(4-methoxy-3-methylphenyl)bicyclo[2.2.2]octan-1-yl)methyl)carbamoyl) (trans-cyclohexyl) 3-hydroxyazetidine-1-carboxylate], 6.00 to 8.00. In the case of `COc1ccc(C23CCC(CN(c4cc(-c5cnn(C(C)(C)C)c5)ncn4)C(=O)[C@H]4CC[C@H](OC(=O)N5CC(O)C5)CC4)(CC2)CC3)cc1C` [Compound 2.36, 4-((6-(1-(tert-Butyl)-1H-pyrazol-4-yl)pyrimidin-4-yl)((4-(4-methoxy-3-methylphenyl)bicyclo[2.2.2]octan-1-yl)methyl)carbamoyl) (trans-cyclohexyl) 3-hydroxyazetidine-1-carboxylate] it was 6.00 to 8.00.

Turning to `CCC(CC)(CC)n1cc(-c2ccnc(N(CC34CCC(c5ccc(OC)c(C)c5)(CC3)CC4)C(=O)[C@H]3CC[C@H](OC(=O)N4CC(O)C4)CC3)c2)cn1` [Compound 4.08, 4-((4-(1-(3-Ethylpentan-3-yl)-1H-pyrazol-4-yl)pyridin-2-yl)((4-(4-methoxy-3-methylphenyl)bicyclo[2.2.2]octan-1-yl)methyl)carbamoyl) cyclohexyl trans-3-hydroxyazetidine-1-carboxylate], the pEC50 was 6.00 to 8.00. In the case of `COc1ccc(C23CCC(CN(c4cc(-c5cnn(C(C)(C)C)c5)ccn4)C(=O)[C@H]4CC[C@H](OC(=O)N5CC(O)C5)CC4)(CC2)CC3)cc1C` [Compound 3, 4-((4-(1-(tert-Butyl)-1H-pyrazol-4-yl)pyridin-2-yl)((4-(4-methoxy-3-methylphenyl)bicyclo[2.2.2]octan-1-yl)methyl)carbamoyl)cyclohexyl 3-hydroxyazetidine-trans-1-carboxylate] it was at least 8.00; in that of `COc1ccc(C23CCC(CN(c4cc(-c5cnn(C(C)(C)C)c5)c(F)cn4)C(=O)[C@H]4CC[C@H](OC(=O)N5CC(O)C5)CC4)(CC2)CC3)cc1C` [Compound 1.12, 4-((4-(1-(tert-Butyl)-1H-pyrazol-4-yl)-5-fluoropyridin-2-yl)((4-(4-methoxy-3-methylphenyl)bicyclo[2.2.2]octan-1-yl)methyl)carbamoyl) (trans-cyclohexyl) 3-hydroxyazetidine-1-carboxylate], at least 8.00; in that of `COc1ccc([C@H]2CC[C@H](CN(c3cc(-c4coc(C(C)(C)C)n4)ccn3)C(=O)[C@H]3CC[C@H](OC(=O)N4CCC(O)CC4)CC3)CC2)cc1C` [Compound 1.06, trans-4-((4-(2-(tert-Butyl)oxazol-4-yl)pyridin-2-yl)(((trans)-4-(4-methoxy-3-methylphenyl)cyclohexyl)methyl)carbamoyl) cyclohexyl 4-hydroxypiperidine-1-carboxylate], 6.00 to 8.00. Regarding `COc1ccc([C@H]2CC[C@H](CN(c3cc(-c4cnc(C(C)(C)C)s4)ccn3)C(=O)[C@H]3CC[C@H](OC(=O)NC4CCOCC4)CC3)CC2)cc1C` [Compound 1], the pEC50 is 6.00 to 8.00. As to `COc1ccc(C23CCC(CN(c4cc(-c5cnc(C(C)(C)C)s5)ccn4)C(=O)[C@H]4CC[C@H](OC(=O)NC5COC5)CC4)(CC2)CC3)cc1C` [Compound 2.04, 4-((4-(2-(tert-Butyl)thiazol-5-yl)pyridin-2-yl)((4-(4-methoxy-3-methylphenyl)bicyclo[2.2.2]octan-1-yl)methyl)carbamoyl) (trans-cyclohexyl) oxetan-3-ylcarbamate], the pEC50 was at least 8.00. Regarding `COc1ccc(C23CCC(CN(c4cc(-c5coc(C(C)(C)C)n5)ccn4)C(=O)[C@H]4CC[C@H](OC(=O)N5CC[C@H]5CO)CC4)(CC2)CC3)cc1C` [Compound 2.11, (S)-4-((4-(2-(tert-Butyl)oxazol-4-yl)pyridin-2-yl)((4-(4-methoxy-3-methylphenyl)bicyclo[2.2.2]octan-1-yl)methyl)carbamoyl)cyclohexyl 2-(hydroxymethyl)azetidine- trans-1-carboxylate], the pEC50 is at least 8.00. In the case of `CCC(C)(C)n1cc(-c2ccnc(N(CC34CCC(c5ccc(OC)c(C)c5)(CC3)CC4)C(=O)[C@H]3CC[C@H](OC(=O)NCCCO)CC3)c2)cn1` [Compound 4.03, 4-(((4-(4-Methoxy-3-methylphenyl)bicyclo[2.2.2]octan-1-yl)methyl)(4-(1-(tert-pentyl)-1H-pyrazol-4-yl)pyridin-2-yl)carbamoyl) cyclohexyl trans-(3-hydroxypropyl)carbamate] it was at least 8.00; in that of `COc1ccc([C@H]2CC[C@H](CN(c3cc(-c4cnc(C(C)(C)C)s4)ccn3)C(=O)[C@H]3CC[C@H](OC(=O)N4CCC(O)CC4)CC3)CC2)cc1C` [Compound 1.03, trans-4-((4-(2-(tert-Butyl)thiazol-5-yl)pyridin-2-yl)(((trans)-4-(4-methoxy-3-methylphenyl)cyclohexyl)methyl)carbamoyl) cyclohexyl 4-hydroxypiperidine-1-carboxylate], 6.00 to 8.00; in that of `COc1ccc(C23CCC(CN(c4cc(-c5coc(C(C)(C)C)n5)ccn4)C(=O)[C@H]4CC[C@H](OC(=O)N5CCC(N(C)C)C5)CC4)(CC2)CC3)cc1C` (stereo partly drawn) [Compound 2.16, 4-((4-(2-(tert-Butyl)oxazol-4-yl)pyridin-2-yl)((4-(4-methoxy-3-methylphenyl)bicyclo[2.2.2]octan-1-yl)methyl)carbamoyl)cyclohexyl 3-(dimethylamino)pyrrolidine- trans-1-carboxylate], 6.00 to 8.00.

As for `COc1ccc(C23CCC(CN(c4cc(-n5cnc(C(C)(C)C)c5)ccn4)C(=O)[C@H]4CC[C@H](OC(=O)N5CC(O)C5)CC4)(CC2)CC3)cc1C` [Compound 4.11, 4-((4-(4-(tert-Butyl)-1H-imidazol-1-yl)pyridin-2-yl)((4-(4-methoxy-3-methylphenyl)bicyclo[2.2.2]octan-1-yl)methyl)carbamoyl) cyclohexyl trans-3-hydroxyazetidine-1-carboxylate], the pEC50 was 6.00 to 8.00.

One may read the pEC50 as the negative decadic logarithm of the EC50, by convention in mol/L. Low readings indicate a large EC50, high ones a small EC50.
